Data on 12 molecules can be found in article PMC10051310, “Antiproliferative Activity, Multikinase Inhibition, Apoptosis- Inducing Effects and Molecular Docking of Novel Isatin–Purine Hybrids” (Medicina, 2023).

One data set concerns HeLa. Nature of the data set: MTT cytotoxicity assay, HeLa. Particulars: Homo sapiens, 24 h, read-out: In Vitro Cytotoxicity IC50 HeLa. On the technique in general: Formazan colour is commonly taken as a measure of viable cells.
Another data set deals with HepG2. Nature of the data set: MTT cytotoxicity assay, HepG2. Particulars: Homo sapiens, HepG2, 24 h, read-out: In Vitro Cytotoxicity IC50 HepG2.
The subject of another data set is MCF-7. Nature of the data set: MTT cytotoxicity assay, MCF-7. Particulars: Homo sapiens, MCF7, 24 h, read-out: In Vitro Cytotoxicity IC50 MCF-7.
The subject of another data set is MDA-MB-231. Nature of the data set: MTT cytotoxicity assay, MDA-MB-231. Particulars: Homo sapiens, MDA-MB-231, 24 h, read-out: In Vitro Cytotoxicity IC50 MDA-MB-231.
In data set [1] the test system is HepG2, MCF-7, MDA-MB-231 and HeLa cell lines. The data set is described as follows: MTT cytotoxicity assay, summary over all four cell lines. Particulars: Homo sapiens, read-out: IC50 against all tested cell lines.
Procedure: Sunitinib, a well-known multi-kinase inhibitor, was used as a reference compound.
After incubation for 48 h, the cells were treated with different concentrations of the synthesized hybrid compounds for 24 h. After the addition of 20 μL MTT (5 mg/mL), the plates were incubated for 4 h and then 100 μL Dimethyl sulfoxide (DMSO) was added to each well to dissolve the insoluble purple formazan formed. […] The relative cell viability percentage was calculated as (A570 of treated samples/A570 of untreated sample) × 100.

As usually defined, the melting point is the temperature of the solid-liquid transition. The IC50 is the concentration that inhibits the measured activity by half. Regarding `O=C1Nc2ccc(Cl)cc2C1=NNC(=O)c1ccc(Nc2ncnc3[nH]cnc23)cc1` [Compound 5, 4-((9H-purin-6-yl)amino)-N’-(5-chloro-2-oxoindolin-3-ylidene)benzohydrazide], the melting point was over 300 °C. In addition, the IC50 in the data set on HeLa is over 100 µM. Besides, in the data set on HepG2, the IC50 came out at 88.1 ± 4 µM. For the same molecule, the IC50 in the data set on MCF-7 was over 100 µM. In the data set with MDA-MB-231, the IC50 came out at 82.1 ± 3.8 µM.

For the molecule `O=C1Nc2ccccc2/C1=N\Nc1ncnc2[nH]cnc12` [Compound 11, (E)-3-(2-(9H-purin-6-yl)hydrazineylidene)indolin-2-one], the melting point is over 300 °C. Also, the IC50 with HeLa worked out at 17.6 ± 1.4 µM. The IC50 in the data set on HepG2 amounted to 12.9 ± 1 µM. In addition, the half-inhibitory concentration (IC50) in the data set on MCF-7 was 15.6 ± 1.3 µM. For the same molecule, the IC50 in the data set on MDA-MB-231 is 24.8 ± 1.9 µM.

`O=C1Nc2ccc([N+](=O)[O-])cc2C1=NNC(=O)c1ccc(Nc2ncnc3[nH]cnc23)cc1` [Compound 9, 4-((9H-purin-6-yl)amino)-N’-(5-nitro-2-oxoindolin-3-ylidene)benzohydrazide] returned a melting point of over 300 °C. In addition, in the data set with HeLa, the IC50 is 84.6 ± 4.1 µM. Also, the IC50 in the data set with HepG2 came out at 75.6 ± 3.5 µM. Moreover, the IC50 in the data set with MCF-7 stood at 65 ± 3.4 µM. The IC50 with MDA-MB-231 came out at 72.2 ± 3.4 µM.

For the molecule `Cc1ccc2c(c1)/C(=N\Nc1ncnc3[nH]cnc13)C(=O)N2` [Compound 14, (E)-3-(2-(9H-purin-6-yl)hydrazineylidene)-5-methylindolin-2-one], the melting point lay in the range of 294 to 296 °C. The IC50 in the data set on HeLa was found to be 43.5 ± 2.7 µM. In the data set on HepG2, the IC50 was 18.1 ± 1.3 µM. Moreover, the IC50 in the data set on MCF-7 was determined as 27.5 ± 2.1 µM. Also, in the data set on MDA-MB-231, the IC50 is 32.5 ± 2.2 µM. In addition, in data set [1], the IC50 lay within 18.1 to 53.5 µM.

Regarding `O=C1Nc2ccc(Cl)cc2/C1=N\Nc1ncnc2[nH]cnc12` [Compound 12, (E)-3-(2-(9H-purin-6-yl)hydrazineylidene)-5-chloroindolin-2-one], the melting point lay within 296 to 298 °C. For the same molecule, the IC50 in the data set on HeLa is 46.7 ± 2.8 µM. In addition, the IC50 in the data set with HepG2 is 26.4 ± 1.8 µM. In the data set on MCF-7, the IC50 was 33 ± 2.3 µM. For the same molecule, the IC50 in the data set with MDA-MB-231 was 41.3 ± 2.5 µM. Further, in data set [1], the IC50 was 18.1 to 53.5 µM.

`COc1ccc2c(c1)C(=NNC(=O)c1ccc(Nc3ncnc4[nH]cnc34)cc1)C(=O)N2` [Compound 8, 4-((9H-purin-6-yl)amino)-N’-(5-methoxy-2-oxoindolin-3-ylidene)benzohydrazide] registered a melting point of over 300 °C. Further, in the data set with HeLa, the IC50 amounted to 53.5 ± 3.2 µM. Also, the IC50 in the data set on HepG2 worked out at 48.1 ± 2.9 µM. In addition, the IC50 with MCF-7 worked out at 40.6 ± 2.7 µM. Moreover, the IC50 in the data set on MDA-MB-231 was determined as 29.8 ± 2 µM. The IC50 in data set [1] is 18.1 to 53.5 µM.

In turn, `O=C1Nc2ccc(F)cc2/C1=N\Nc1ncnc2[nH]cnc12` [Compound 13, (E)-3-(2-(9H-purin-6-yl)hydrazineylidene)-5-fluoroindolin-2-one] yielded a melting point of over 300 °C. Further, the IC50 with HeLa was 51.2 ± 3 µM. For the same molecule, the IC50 in the data set on HepG2 was 31.7 ± 2.1 µM. Also, the IC50 in the data set with MCF-7 is 38.8 ± 2.5 µM. The IC50 with MDA-MB-231 is 45.2 ± 2.7 µM. Moreover, the IC50 in data set [1] is 18.1 to 53.5 µM.

Regarding `O=C1Nc2ccc(F)cc2C1=NNC(=O)c1ccc(Nc2ncnc3[nH]cnc23)cc1` [Compound 6, 4-((9H-purin-6-yl)amino)-N’-(5-fluoro-2-oxoindolin-3-ylidene)benzohydrazide], the melting point was over 300 °C. Moreover, the IC50 in the data set on HeLa is 30.7 ± 2.3 µM. The IC50 in the data set with HepG2 was determined as 42.4 ± 2.7 µM. For the same molecule, the IC50 with MCF-7 was found to be 22.3 ± 1.8 µM. In the data set with MDA-MB-231, the IC50 stood at 19.1 ± 1.4 µM. Also, the IC50 in data set [1] was in the range of 18.1 to 53.5 µM.

On to `Cc1ccc2c(c1)C(=NNC(=O)c1ccc(Nc3ncnc4[nH]cnc34)cc1)C(=O)N2` [Compound 7, 4-((9H-purin-6-yl)amino)-N’-(5-methyl-2-oxoindolin-3-ylidene)benzohydrazide], for which the melting point was over 300 °C. The IC50 in the data set with HeLa was over 100 µM. The IC50 in the data set with HepG2 worked out at 60.4 ± 3.2 µM. Besides, the IC50 in the data set on MCF-7 came to 76.4 ± 3.7 µM. In addition, in the data set with MDA-MB-231, the IC50 was determined as 91.6 ± 4.5 µM.

Consider `O=C1Nc2ccc([N+](=O)[O-])cc2/C1=N\Nc1ncnc2[nH]cnc12` [Compound 16, (E)-3-(2-(9H-purin-6-yl)hydrazineylidene)-5-nitroindolin-2-one], for which the melting point is over 300 °C. Moreover, in the data set on HeLa, the IC50 was 69.5 ± 3.6 µM. Moreover, the IC50 in the data set with HepG2 was determined as 39.7 ± 2.5 µM. Also, the IC50 with MCF-7 was determined as 58.3 ± 3.2 µM. Besides, in the data set with MDA-MB-231, the IC50 turned out to be 67.4 ± 3.2 µM.

As to `CCN(CC)CCNC(=O)c1c(C)[nH]c(/C=C2\C(=O)Nc3ccc(F)cc32)c1C` [Sunitinib, reference compound], the IC50 in the data set on HeLa was 7.48 ± 0.6 µM; in the data set with HepG2, 6.82 ± 0.5 µM; in the data set with MCF-7 it was 5.19 ± 0.4 µM; in the data set with MDA-MB-231, 8.41 ± 0.7 µM.

`O=C1Nc2ccccc2C1=NNC(=O)c1ccc(Nc2ncnc3[nH]cnc23)cc1` [Compound 4, 4-((9H-purin-6-yl)amino)-N’-(2-oxoindolin-3-ylidene)benzohydrazide]: the melting point was over 300 °C. For the same molecule, the IC50 in the data set on HeLa came out at 62.4 ± 3.4 µM. In the data set with HepG2, the IC50 was 54.6 ± 3.1 µM. In addition, the IC50 in the data set on MCF-7 was found to be 47.3 ± 3 µM. Moreover, the IC50 in the data set with MDA-MB-231 was determined as 59.7 ± 2.9 µM.
